In patent publication US20070244056A1 (priority 2004, published 2007):

Assays:
[1] = test system: Transgenic mice overexpressing human Cu/Zn-SOD G93A mutations; experiment: Experimental model for amyotrophic lateral sclerosis (SOD1 G93A transgenic mice); type: in vivo; conditions: glatiramer acetate at both dosages; riluzole 30 mg/kg per day; during the course of treatment
Experimental: Transgenic mice overexpressing human Cu/Zn-SOD G93A mutations ((B6SJL-TgN (SOD1-G93A) 1 Gur) and non-transgenic B6/SJL mice are purchased from Jackson Laboratories (Bar Harbor, Me., USA). The second generation of G1H mice are used.
A group of 15 mice serve as controls.
The drugs are administered in drinking water starting at 60 days of age.
The clinical condition of the mice is monitored daily starting at 40 days. The onset of clinical signs is scored by examining the mice for tremors and/or shaking of the limbs, the position of one or both hind limbs (hanging rather than splaying out) when the mice are suspended in the air by their tail. The age of clinical onset was determined by the age (days) at which loss of splay or tremors of hind limbs is observed. The loss of righting reflex determines the end stage of the disease. The mice are sacrificed if they could not right themselves within 30 seconds when placed on either side on a flat surface.
Mice are observed daily (including weekends) and weighed weekly. Motor performance is assessed from 40 days of age using the rotarod apparatus to measure the night activity of the mice from 8 p.m.-8 a.m.
Mice were perfused transcardially with 4% paraformaldehyde/0.9% NaCl solution, brains and whole spinal cord were dissected out, frozen in liquid nitrogen and cut in transverse sections of 20 μm on a sliding microtome. […]

[2] = test system: multiple sclerosis (MS); conditions: daily subcutaneous injections, 20 mg/injection; cited from earlier work
[3] = test system: human patients afflicted with an unspecified form of multiple sclerosis; conditions: administered alone; data of WO 00/74676; cited from earlier work

Compound | running wheel activity (motor activity) [1] | appearance of "black holes" [2] | appearance of new lesions by magnetic resonance imaging (MRI) [2] | progression of disability [2] | relapse rates [2] | EDSS score [3] | accumulation of hypointense lesions [3]
L-glutamic acid polymer with L-alanine, L-lysine and L-tyrosine, acetate (salt) [glatiramer acetate] | more active during the course of treatment and maintain their motor activity longer than controls | reduce | reduce | reduce | reduce |  | 
Nc1nc2ccc(OC(F)(F)F)cc2s1 [riluzole, 2-amino-6-trifluoromethoxy benzothiazole] | more active during the course of treatment and maintain their motor activity longer than controls |  |  |  |  | No effect | showed a trend toward reduction
